Like-named read-outs stand apart in the source and are kept apart here.

Data set [1] is classed as in vitro ADME, pig. The following applies: not told. As to the method:
FITC labeled chitosan NPs were used.
b) Ethanol (100% Ethanol diluted with 50% PBS) c) 2-Dimethylaminopropionic acid dodecyl ester (DDAIP) (“DDAIP”) (2 g/100 ml diluted in PBS) d) Ethanol+DDAIP (100% Ethanol diluted with 4 g/100 ml of DDAIP to achieve the same final working concentration of Ethanol and DDAIP as used in (b) and (c) respectively. e) TDCA (100 mM diluted in PBS)
Fresh pig tongue was obtained from the Butcher shop at Cambridge. The middle portion of the tongue was selected for these studies. 5 designated sections were chosen on this portion and 0.75 mL of each of these PEs were applied at each of these sections, followed by the addition of the wafers (25 mg each) with additional 0.75 mL of PEs on top of the wafers. The incubation was done in the dark at RT for 1 hour. The tongue was then washed with water and all the wafers were removed from their designated sections. The respective sections were individually cut and embedded into an OCT for sectioning using a microtome. 50 microns slices were cut from each of these sections and 2 slices were placed on slides. The slides were kept submerged in water for 3 hours to remove any bound OCT as it interferes with the image quality. Following that, each of the slides from different sections were mounted with cover slips using a DAPI containing mounting media and imaged using a fluorescence microscope. Images were taken at 4×, 10× and 20× in both FITC and DAPI channels. In addition, slices of untreated tongue were also cut and imaged to account for inherent fluorescence of the tongue. However, before conducting permeation studies, many experiments were performed to discover the optimal concentrations of PEs that would not result in significant modifications to out current wafer synthesis protocol and allow seamless integration into the wafer.

Data set [2] concerns hamster cheek pouch carcinoma (HCPC1) tumors. In words: Tumor inhibition and weight change in HCPC1 allografted hamsters. The class given is in vivo, Golden Syrian hamsters. The following applies: 1.15 mg/kg cisplatin equivalent; sponge topically, free cisplatin intraperitoneally. As to the method: Golden Syrian hamsters, 71-80 g, were anesthetized and prepared for implantation of the tumor cells. Hamster cheek pouch carcinoma (HCPC 1) cells were collected from culture, and 1×10^8 cells suspended in PBS buffer were then injected subcutaneously into the cheek pouch of a hamster. After 7 days when tumors reached around 100 mm^3 in size, hamsters were divided into 4 groups, minimizing weight and tumor size difference. […] Two doses were administrated with 3-day interval. After treatments, the animals were monitored closely, and measurements of the tumor size and body weight for each animal were performed at regular intervals using calipers without knowledge of which injection each animal had received. The tumor volume for each time point was calculated according to the formula, (length)×(width)^2/2, where the long axis is the length, the short axis is the width.

In data set [3] the test system is HCPC 1 (hamster cheek pouch carcinoma) cells. In words: MTS cell viability assay. Format: cell-based. The following applies: HCPC 1 cells, 48 h. As to the method: A cell viability study of 33% cisplatin-loaded nanoparticles was also conducted using the tetrazolium compound (3-(4,5-dimethylthiazol-2-yl)-5-(3-carboxymethoxy phenyl)-2-(4-sulfophenyl)-2H-tetrazolium inner salt, MTS. When incorporated by the cells, MTS is bioreduced by metabolically active cells. The amount of […] is directly proportional to the number of living cells in culture.

In the case of `CCCCCCCCCCCCOC(=O)C(C)N(C)C` (stereo not shown) [DDAIP, 2-Dimethylaminopropionic acid dodecyl ester], the “Permeation Depth” value in data set [1] (pig, 1 hour) was 200 microns. The “depth permeated by the NPs” value in data set [1] (pig, 1 hour, 2 g/100 ml) is 200 μm.

For the compound `C[C@H](CCC(=O)NCCS(=O)(=O)O)[C@H]1CC[C@H]2[C@@H]3CC[C@@H]4C[C@H](O)CC[C@]4(C)[C@H]3C[C@H](O)[C@]12C` [TDCA], in data set [1], the “Permeation Depth” value stood at 100 microns.

On to `N.N.[Cl][Pt][Cl]` [free cisplatin, cis-diamminedichloroplatinum(ll)], for which, in data set [2], the tumor inhibition entry was “comparable decrease in tumor size” and the weight change entry is on record as “significant weight loss”. The same compound yielded an IC50 in data set [3] of roughly 60 nM.

On to `CCO` [Ethanol], for which the “Permeation Depth” value in data set [1] (pig, 1 hour) was determined as 140 microns.

The values are drawn from patent US20140234212A1, “Targeted Buccal Delivery of Agents” (Massachusetts Institute of Technology, priority 2013, published 2014).
